Results published in patent US10442830B2, “Synthesis of monoethers of sugar comprising a long alkyl chain and uses thereof as a surfactant” (TEREOS STARCH & SWEETENERS BELGIUM, priority 2014, dated 2019).

Test: Surface tension of aqueous solutions (Du Noüy-Padday method, platinum rod probe)
Type: physicochemical
Conditions: for Minimum hydrotrope concentration (MHC) or critical micelle concentration (CMC) / surface tension of water (γsat): in water at 25° C.; for surface tension of water (γsat): saturation surface tension; for concentration necessary to lower the surface tension / surface tension reached at the stated concentration: water
Experimental: The term “surfactant” or “surface-active agent” denotes a compound that reduces surface tension when it is dissolved in water or in an aqueous medium, or that reduces the interfacial tension between two liquids, between a liquid and a solid or between a liquid and a gas. As a general rule, the surface-active properties of a compound may be measured by the plate method using a platinum rod as probe (Du Nouy-Padday method, as described in J F Padday, A R Pitt, R M Pashley, J. Chem. Soc. Faraday. Trans 1, 1975, 71, 1919-1931). The Du Nouy-Padday method is used for measuring the equilibrium of surface tension or of dynamic surface tension at the air/liquid interface.
Surface tension was measured at (25.0±0.1)° C. with a Krüss K100MK2 tensiometer using a platinum rod as probe. A total of 1.0 ml of water was added to the measuring vessel. When the surface tension is stable (standard deviation of the last five measurements of 0.2 mN/m), manual dilution is carried out with a concentrated solution of surfactant to its limit of solubility while maintaining constant volume.
In the present study, the general characteristics of the surfactants were evaluated by measuring the reduction in saturated surface tension (γsat) and the critical micelle concentration (CMC) of the mixture (3+4) previously obtained in water at 25° C. The surface-active properties were compared against those of the pure compounds.
The surface tension of aqueous solutions containing increasing concentrations of each of the compounds was measured by the Du Noüy-Padday method using a platinum rod as probe (method described in J. F. Padday, A. R. Pitt, R. M. Pashley, J. Chem. Soc. Faraday. Trans 1, 1975, 71, 1919-1931). The data are presented graphically in FIG. 1, showing analysis of the surface tension as a function of the concentration of the sorbitan ether derivatives ([…] (black diamonds), C12EthSorb (black lozenges), C5/C12EthSorb (black triangles)). The value of the critical micelle concentration (CMC) is shown with a small arrow for C5EthSorb.
The general characteristics of the surfactants were evaluated as in example 4 by measuring the reduction in saturated surface tension (γsat) and the critical micelle concentration (CMC) of the mixture (C5/C12 MeGlu) obtained previously in water at 25° C. The surface-active properties were compared with pure compounds.
The surface tension of aqueous solutions containing increasing concentrations of each of the compounds was measured by the plate method using a platinum rod as probe (Du Nouy-Padday method as described in J F Padday, A R Pitt, R M Pashley, J. Chem. Soc. Faraday. Trans 1, 1975, 71, 1919-1931). The data are shown in FIG. 2, showing analysis of the surface tension from the concentration of the ether derivatives of methyl glucoside (C5EthMeGlu (black star), C12EthMeGlu (black diamond), C5/C12EthMeGlu (black cross)).

[1] = ether derivatives of methyl glucoside

| Substance | Minimum hydrotrope concentration (MHC) or critical micelle concentration (CMC) (sorbitan ether derivatives) | surface tension of water (γsat) (sorbitan ether derivatives) | Minimum hydrotrope concentration (MHC) or critical micelle concentration (CMC) [1] | surface tension of water (γsat) [1] | concentration necessary to lower the surface tension (sorbitan ethers, to lower the surface tension by 31 mN/m) | surface tension reached at the stated concentration (sorbitan ethers) | concentration necessary to lower the surface tension (methyl glucoside ethers) | surface tension reached at the stated concentration (methyl glucoside ethers) |
| --- | --- | --- | --- | --- | --- | --- | --- | --- |
| (6+5+3−)-dodecyl sorbitan [Product C12EthSorb] | 30.2 mg/L | 31 mN/m | – | – | – | – | – | – |
| (6+4)-O-dodecyl-α-D-methyl glucopyranoside [Product C12EthMeGlu] | – | – | 4.5 mg/L | 28 mN/m | – | – | – | – |
| pentyl sorbitan [Product C5EthSorb] | 1779 mg/L | 32 mN/m | – | – | 1179 µg/mL | 31 mN/m | – | – |
| pentyl α-D-methyl glucopyranoside [Product C5EthMeGlu] | – | – | 8199 mg/L | 32 mN/m | – | – | 8199 µg/mL | 32 mN/m |
